The term Kd denotes a measure of binding affinity in units of concentration. High values mean lower affinity, low ones higher affinity.

Data on two compounds can be found in PMC7677715 (Redox Biology, 2020).

The target of experiment [1] is T1, γ-TTP (α-tocopherol transfer protein A156L) (Homo sapiens, UniProt P49638, A156L).
T1 sequence (P49638 48-278 A156L): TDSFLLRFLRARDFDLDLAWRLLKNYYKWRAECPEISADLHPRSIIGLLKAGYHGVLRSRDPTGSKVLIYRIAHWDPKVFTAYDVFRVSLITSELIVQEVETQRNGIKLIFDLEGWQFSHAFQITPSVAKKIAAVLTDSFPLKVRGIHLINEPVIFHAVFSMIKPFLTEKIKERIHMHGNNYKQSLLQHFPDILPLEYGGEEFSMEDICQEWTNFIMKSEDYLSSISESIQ
The experiment can be described thus: X-ray crystal structure. The experiment is classed as binding.

Experiment [2] addresses T2, α-tocopherol transfer protein (α-TTP) (Homo sapiens, UniProt P49638).
T2 sequence (P49638 1-278): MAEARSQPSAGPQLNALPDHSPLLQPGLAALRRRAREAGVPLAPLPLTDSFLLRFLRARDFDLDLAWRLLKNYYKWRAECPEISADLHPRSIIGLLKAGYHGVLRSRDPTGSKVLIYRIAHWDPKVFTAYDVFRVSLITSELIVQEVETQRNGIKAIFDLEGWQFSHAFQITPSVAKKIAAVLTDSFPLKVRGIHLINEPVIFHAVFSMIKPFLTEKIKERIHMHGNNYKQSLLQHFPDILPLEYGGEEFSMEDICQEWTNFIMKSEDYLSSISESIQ
The experiment in a line: FRET ligand transfer to/from liposomes. The experiment is classed as binding.

On to `Cc1c(O)cc2c(c1C)O[C@](C)(CCC[C@H](C)CCC[C@H](C)CCCC(C)C)CC2` [RRR-γ-tocopherol], for which the Kd in experiment [1] turned out to be 53.8 nM.

For the compound `Cc1c(O)cc2c(c1C)O[C@](C)(CCC[C@H](C)CCC[C@H](C)CCCC(C)C)CC2` [γ-tocopherol], the Kp in experiment [2] came to 4.05.
